These results are taken from article doi:10.1101/2021.10.07.463234v2 (biorxiv, 2021).

Molecules are shown by their SMILES. Counter-ions that a name gives are not always drawn.

A word on the %inhibition: it is the share of the control response that was lost under treatment. Lower therefore signals a weak effect. Usually inhibition stands for the share of the control response that was lost under treatment.

In one experiment the target is SARS-CoV-2 Mac1 (Severe acute respiratory syndrome coronavirus 2, UniProt P0DTD1). The experiment in a line: biochemical. Particulars: 100 µM; inhibitor.
Turning to `Cc1ccc(Sc2ccccc2N2CCNCC2)c(C)c1` [Vortioxetine], the “%inhibition” value is on record as 4.926%. As for `COc1ccc(NC(=O)c2ccc(C(=N)N(C)C)cc2)c(C(=O)Nc2ccc(Cl)cn2)c1` [Betrixaban], the “%inhibition” value amounted to 0%. On to `CC(C(=O)O)c1ccc(CC2CCCC2=O)cc1` (stereo not shown) [Loxoprofen Sodium], for which the “%inhibition” value is given as 0%. Same read-out and setting: for `CC(=O)NS(=O)(=O)c1ccc(N)cc1` [Sulfacetamide] the value was 27.01%. Same read-out and setting: the figure for `COCCCOc1ccnc(C[S+]([O-])c2nc3ccccc3[nH]2)c1C` (stereo not shown) [Rebeprazole sodium] is 0%; for `CCOCCn1c(N2CCCN(C)CC2)nc2ccccc21` [Emedastine Difumarate] it is 0.198%. `CCOCCn1c(N2CCCN(C)CC2)nc2ccccc21` [Emedastine]: the “%inhibition” value was determined as 0%.

The same experiment, now with this note: read-out: %inhibition.
`CCNC(=O)[C@@H]1CCCN1C(=O)[C@H](CCCNC(=N)N)NC(=O)[C@H](CC(C)C)NC(=O)[C@@H](CC(C)C)NC(=O)[C@H](Cc1ccc(O)cc1)NC(=O)[C@H](CO)NC(=O)[C@H](Cc1c[nH]c2ccccc12)NC(=O)[C@H](Cc1c[nH]cn1)NC(=O)[C@@H]1CCC(=O)N1` [Leuprolide Acetate]: the inhibition at 100 µM was 13.2%. For `Nc1ccc(S(=O)(=O)Nc2cncc(Cl)n2)cc1` [Sulfalozine sodium], the inhibition at 100 µM was found to be 0%.

Turning to `CC(C)N(CCNC(=O)CN1CCCC1=O)C(C)C` [Pramiracetam], the inhibition at 100 µM came out at 1.25%. Consider `Nc1ccccc1NC(=O)c1ccc(CNC(=O)OCc2cccnc2)cc1` [Entinostat (MS-275)], for which the inhibition at 100 µM was determined as 33.3%. Consider `C[C@]12CCC3=C4CCC(=O)C=C4CC[C@H]3[C@@H]1CC[C@@]2(O)CC#N` [Dienogest], for which the inhibition at 100 µM worked out at 22%. As for `C=CC(=O)Nc1cc(Nc2nccc(-c3cn(C)c4ccccc34)n2)c(OC)cc1N(C)CCN(C)C` [Osimertinib (AZD9291)], the inhibition at 100 µM is 0%. Turning to `CC1=C(C(=O)OCCN(Cc2ccccc2)c2ccccc2)C(c2cccc([N+](=O)[O-])c2)C(P2(=O)OCC(C)(C)CO2)=C(C)N1` (stereo not shown) [Efonidipine], the inhibition at 100 µM amounted to 14.5%.

Turning to `CCC1(C)CC(=O)NC1=O` (stereo not shown) [Ethosuximide], the inhibition at 100 µM came to 0%. Consider `Cc1cnc(NC(=O)C2=C(O)c3ccccc3S(=O)(=O)N2C)s1` [Meloxicam], for which the inhibition at 100 µM amounted to 41.6%. Turning to `CNC(=O)c1cnn(-c2nc(N)c3ncn([C@@H]4O[C@H](CO)[C@@H](O)[C@H]4O)c3n2)c1` [Regadenoson], the inhibition at 100 µM was determined as 0%. As to `C=C=CCNC(=O)c1ccc(F)cc1` [Diastase], the inhibition at 100 µM was 0%. For `CC(=O)Nc1cccc(-n2c(=O)n(C3CC3)c(=O)c3c(Nc4ccc(I)cc4F)n(C)c(=O)c(C)c32)c1` [Trametinib (GSK1120212)], the inhibition at 100 µM was found to be 3.49%.

In the case of `O=C(NCCN1CCOCC1)c1ccc(Cl)cc1` [Moclobemide (Ro 111163)], the inhibition at 100 µM came to 0%.

Turning to `Oc1ccc(C2CNCCc3c2cc(O)c(O)c3Cl)cc1` (stereo not shown) [Fenoldopam mesylate], the inhibition at 100 µM was 0%. For `O=C(O)c1cc(/N=N/c2ccc(S(=O)(=O)Nc3ccccn3)cc2)ccc1O` [Sulfasalazine], the inhibition at 100 µM was found to be 0%. Consider `CCOC(CN1CCN(CC(C)C(=O)c2ccccc2)CC1)c1ccccc1` (stereo not shown) [Eprazinone 2HCl], for which the inhibition at 100 µM was found to be 0%. `CCCCNc1cc(C(=O)O)cc(S(N)(=O)=O)c1Oc1ccccc1` [Bumetanide]: the inhibition at 100 µM turned out to be 25.7%. Consider `O=C(O[C@H]1C[C@H]2CC[C@@H](C1)[N+]21CCCC1)C(O)(c1ccccc1)c1ccccc1` [Trospium chloride], for which the inhibition at 100 µM was 14.5%. On to `O=[N+]([O-])O[C@@H]1CO[C@H]2[C@@H]1OC[C@@H]2O` [Isosorbide Mononitrate], for which the inhibition at 100 µM is 2.49%.

For the compound `C[N+](C)(C)CC(O)CC(=O)[O-]` (racemic) [DL-Carnitine HCl], the inhibition at 100 µM was 0%. For `N#Cc1cc(-c2n[nH]c(-c3ccncc3)n2)ccn1` [Topiroxostat], the inhibition at 100 µM worked out at 0%. For `O=c1c(-c2ccc(O)cc2)coc2cc(O)cc(O)c12` [Genistein], the inhibition at 100 µM worked out at 1.56%.

In the case of `CCC/N=C1\S/C(=C\c2ccc(OC[C@H](O)CO)c(Cl)c2)C(=O)N1c1ccccc1C` [Ponesimod], the inhibition at 100 µM worked out at 0%. Regarding `Nc1ccc(S(=O)(=O)NC(=O)c2ccccc2)cc1` [Sulfabenzamide], the inhibition at 100 µM came out at 0%. With `COc1ccc([C@H]2CNC(=O)C2)cc1OC1CCCC1` [S- (+)-Rolipram], the inhibition at 100 µM came out at 0%. With `C[C@H]1COc2c(C3(N)CC3)c(F)cc3c(=O)c(C(=O)O)cn1c23` [Pazufloxacin mesylate], the inhibition at 100 µM came out at 0%. For the compound `CC(C)(C)C(O)/C=C/c1ccc2c(c1)OCO2` (stereo not shown) [Stiripentol], the inhibition at 100 µM worked out at 12.5%. With `NC(=O)c1ncn([C@@H]2O[C@H](CO)[C@@H](O)[C@H]2O)n1` [Ribavirin], the inhibition at 100 µM was 0.0871%. Take `C1CNCCNCCNCCN1` [Cyclen]: the inhibition at 100 µM was 0%. On the same count and under the same terms, the figure for `CCOC(=O)[C@H](CCc1ccccc1)N[C@@H](C)C(=O)N1CCC[C@H]1C(=O)O` [Enalapril Maleate] is 16.8%; for `CN1CCN(c2cc3c(cc2F)c(=O)c(C(=O)O)cn3-c2ccc(F)cc2)CC1` [Difloxacin HCl] it is 2.61%; for `OB1OCc2cc(F)ccc21` [Tavaborole (AN-2690)] it is 0.84%. Same read-out and setting: for `CC(C)(C)C(=O)Oc1ccc(S(=O)(=O)Nc2ccccc2C(=O)NCC(=O)O)cc1` [Sivelestat (ONO-5046)] the value was 0%; for `O=C(O)CCC(=O)Nc1ccc(S(=O)(=O)Nc2nccs2)cc1` [Succinylsulfathiazole], 0%. Regarding `CN(C)CCOC(c1ccc(Cl)cc1)c1ccccn1` (stereo not shown) [CarbinoxaMine Maleate], the inhibition at 100 µM came to 0%.

On to `CCc1ccc(CCOc2ccc(CC3SC(=O)NC3=O)cc2)nc1` (stereo not shown) [Pioglitazone], for which the inhibition at 100 µM was 0%. Regarding `CC(CN(C)C)CN1c2ccccc2Sc2ccccc21` (stereo not shown) [Alimemazine Tartrate], the inhibition at 100 µM amounted to 12.1%. Consider `O=c1[nH]c2ccccc2n1C1CCN(CCCC(c2ccc(F)cc2)c2ccc(F)cc2)CC1` [Pimozide], for which the inhibition at 100 µM is 0%. On the same count and under the same terms, for `COC(=O)/C=C/C(=O)OC` [Dimethyl Fumarate] the value was 23.8%; for `CCN1CCN(C(=O)N[C@@H](C(=O)N[C@@H]2C(=O)N3C(C(=O)O)=C(CSc4nnnn4C)CS[C@H]23)c2ccc(O)cc2)C(=O)C1=O` [Cefoperazone], 0%; for `CCN(CC)CCNC(=O)c1ccc(N)cc1` [Procainamide HCl], 17.1%. As to `Nc1nc2c(ncn2COCCO)c(=O)[nH]1` [Aciclovir], the inhibition at 100 µM turned out to be 19.8%. Still for that read-out and setting: for `COc1cccc2c1C(=O)c1c(O)c3c(c(O)c1C2=O)C[C@@](O)(C(=O)CO)C[C@@H]3O[C@H]1C[C@H](N)[C@@H](O)[C@H](C)O1` [Epirubicin HCl] the value was 51.4%.

In the case of `C/C(=C\c1csc(C)n1)[C@@H]1C[C@@H]2O[C@]2(C)CCC[C@H](C)[C@H](O)[C@@H](C)C(=O)C(C)(C)[C@@H](O)CC(=O)N1` [Ixabepilone (BMS-247550)], the inhibition at 100 µM came out at 5.68%. Same read-out and setting: the figure for `C=C1C[C@@H]2[C@H](CC[C@]3(C)C(=O)CC[C@@H]23)[C@@]2(C)C=CC(=O)C=C12` [Exemestane] is 11.1%.
